Numbers after ± are expanded uncertainties.
Experiment: xn = mol fraction of the nth substance listed
Conditions: Liquid, Vibrating tube method

CCCCCCCCCC [decane] + CCCO
mass density (313.15 K, 15010 kPa, x2 = 0.4326): 740.1 ± 4.7 kg/m3 | mass density (313.15 K, 15020 kPa, x2 = 0.8711): 777.12 ± 5 kg/m3 | mass density (313.15 K, 16000 kPa, x2 = 0.4326): 740.87 ± 4.8 kg/m3 | mass density (313.15 K, 16010 kPa, x2 = 0.1391): 729.71 ± 4.7 kg/m3 | mass density (313.15 K, 16010 kPa, x2 = 0.6863): 757.68 ± 4.9 kg/m3 | mass density (313.15 K, 16010 kPa, x2 = 0.8711): 777.89 ± 5 kg/m3 | mass density (313.15 K, 16020 kPa, x2 = 0.1907): 731.41 ± 4.7 kg/m3 | mass density (313.15 K, 16020 kPa, x2 = 0.3001): 735.77 ± 4.7 kg/m3 | mass density (313.15 K, 17000 kPa, x2 = 0.6863): 758.44 ± 4.9 kg/m3 | mass density (313.15 K, 17010 kPa, x2 = 0.1391): 730.47 ± 4.7 kg/m3 | mass density (313.15 K, 17020 kPa, x2 = 0.1907): 732.18 ± 4.7 kg/m3 | mass density (313.15 K, 17020 kPa, x2 = 0.3001): 736.53 ± 4.7 kg/m3 | mass density (313.15 K, 17020 kPa, x2 = 0.4326): 741.63 ± 4.8 kg/m3 | mass density (313.15 K, 17020 kPa, x2 = 0.8711): 778.66 ± 5 kg/m3 | mass density (313.15 K, 18000 kPa, x2 = 0.1391): 731.21 ± 4.7 kg/m3 | mass density (313.15 K, 18010 kPa, x2 = 0.3001): 737.27 ± 4.7 kg/m3 | mass density (313.15 K, 18010 kPa, x2 = 0.4326): 742.38 ± 4.8 kg/m3 | mass density (313.15 K, 18010 kPa, x2 = 0.6863): 759.2 ± 4.9 kg/m3 | mass density (313.15 K, 18010 kPa, x2 = 0.8711): 779.44 ± 5 kg/m3 | mass density (313.15 K, 18020 kPa, x2 = 0.1907): 732.92 ± 4.7 kg/m3 | mass density (313.15 K, 19000 kPa, x2 = 0.1391): 731.93 ± 4.7 kg/m3 | mass density (313.15 K, 19000 kPa, x2 = 0.1907): 733.63 ± 4.7 kg/m3 | mass density (313.15 K, 19000 kPa, x2 = 0.3001): 738.01 ± 4.7 kg/m3 | mass density (313.15 K, 19000 kPa, x2 = 0.6863): 759.95 ± 4.9 kg/m3 | mass density (313.15 K, 19020 kPa, x2 = 0.4326): 743.13 ± 4.8 kg/m3 | mass density (313.15 K, 19020 kPa, x2 = 0.8711): 780.17 ± 5 kg/m3 | mass density (313.15 K, 20000 kPa, x2 = 0.3001): 738.71 ± 4.7 kg/m3 | mass density (313.15 K, 20000 kPa, x2 = 0.4326): 743.85 ± 4.8 kg/m3 | mass density (313.15 K, 20010 kPa, x2 = 0.6863): 760.69 ± 4.9 kg/m3 | mass density (313.15 K, 20020 kPa, x2 = 0.1391): 732.61 ± 4.7 kg/m3 | mass density (313.15 K, 20020 kPa, x2 = 0.1907): 734.34 ± 4.7 kg/m3 | mass density (313.15 K, 20020 kPa, x2 = 0.8711): 780.91 ± 5 kg/m3 | mass density (323.15 K, 100 kPa, x2 = 0.1391): 707.51 ± 4.5 kg/m3 | mass density (323.15 K, 100 kPa, x2 = 0.1907): 709.03 ± 4.5 kg/m3 | mass density (323.15 K, 100 kPa, x2 = 0.3001): 712.69 ± 4.6 kg/m3 | mass density (323.15 K, 100 kPa, x2 = 0.4326): 717.73 ± 4.6 kg/m3 | mass density (323.15 K, 100 kPa, x2 = 0.6863): 734.39 ± 4.7 kg/m3 | mass density (323.15 K, 100 kPa, x2 = 0.8711): 755.13 ± 4.8 kg/m3 | mass density (323.15 K, 1000 kPa, x2 = 0.1907): 709.9 ± 4.5 kg/m3 | mass density (323.15 K, 1000 kPa, x2 = 0.6863): 735.11 ± 4.7 kg/m3 | mass density (323.15 K, 1010 kPa, x2 = 0.1391): 708.44 ± 4.5 kg/m3 | mass density (323.15 K, 1010 kPa, x2 = 0.3001): 713.84 ± 4.6 kg/m3 | mass density (323.15 K, 1010 kPa, x2 = 0.4326): 718.54 ± 4.6 kg/m3 | mass density (323.15 K, 1020 kPa, x2 = 0.8711): 755.79 ± 4.8 kg/m3 | mass density (323.15 K, 2000 kPa, x2 = 0.4326): 719.49 ± 4.6 kg/m3 | mass density (323.15 K, 2010 kPa, x2 = 0.1391): 709.4 ± 4.5 kg/m3 | mass density (323.15 K, 2010 kPa, x2 = 0.1907): 710.86 ± 4.5 kg/m3 | mass density (323.15 K, 2010 kPa, x2 = 0.3001): 714.8 ± 4.6 kg/m3 | mass density (323.15 K, 2020 kPa, x2 = 0.6863): 736.08 ± 4.7 kg/m3 | mass density (323.15 K, 2020 kPa, x2 = 0.8711): 756.71 ± 4.8 kg/m3 | mass density (323.15 K, 3000 kPa, x2 = 0.8711): 757.64 ± 4.8 kg/m3 | mass density (323.15 K, 3010 kPa, x2 = 0.1391): 710.34 ± 4.5 kg/m3 | mass density (323.15 K, 3010 kPa, x2 = 0.1907): 711.79 ± 4.6 kg/m3 | mass density (323.15 K, 3010 kPa, x2 = 0.4326): 720.43 ± 4.6 kg/m3 | mass density (323.15 K, 3010 kPa, x2 = 0.6863): 737.03 ± 4.7 kg/m3 | mass density (323.15 K, 3020 kPa, x2 = 0.3001): 715.74 ± 4.6 kg/m3 | mass density (323.15 K, 4000 kPa, x2 = 0.3001): 716.68 ± 4.6 kg/m3 | mass density (323.15 K, 4010 kPa, x2 = 0.4326): 721.39 ± 4.6 kg/m3 | mass density (323.15 K, 4010 kPa, x2 = 0.6863): 737.97 ± 4.7 kg/m3 | mass density (323.15 K, 4020 kPa, x2 = 0.1391): 711.27 ± 4.6 kg/m3 | mass density (323.15 K, 4020 kPa, x2 = 0.1907): 712.75 ± 4.6 kg/m3 | mass density (323.15 K, 4020 kPa, x2 = 0.8711): 758.56 ± 4.9 kg/m3 | mass density (323.15 K, 5000 kPa, x2 = 0.1391): 712.19 ± 4.6 kg/m3 | mass density (323.15 K, 5000 kPa, x2 = 0.3001): 717.61 ± 4.6 kg/m3 | mass density (323.15 K, 5000 kPa, x2 = 0.4326): 722.33 ± 4.6 kg/m3 | mass density (323.15 K, 5000 kPa, x2 = 0.8711): 759.48 ± 4.9 kg/m3 | mass density (323.15 K, 5020 kPa, x2 = 0.1907): 713.66 ± 4.6 kg/m3 | mass density (323.15 K, 5020 kPa, x2 = 0.6863): 738.91 ± 4.7 kg/m3 | mass density (323.15 K, 6000 kPa, x2 = 0.1391): 713.11 ± 4.6 kg/m3 | mass density (323.15 K, 6010 kPa, x2 = 0.1907): 714.57 ± 4.6 kg/m3 | mass density (323.15 K, 6010 kPa, x2 = 0.3001): 718.54 ± 4.6 kg/m3 | mass density (323.15 K, 6010 kPa, x2 = 0.4326): 723.28 ± 4.6 kg/m3 | mass density (323.15 K, 6010 kPa, x2 = 0.6863): 739.85 ± 4.7 kg/m3 | mass density (323.15 K, 6010 kPa, x2 = 0.8711): 760.42 ± 4.9 kg/m3 | mass density (323.15 K, 7000 kPa, x2 = 0.4326): 724.2 ± 4.6 kg/m3 | mass density (323.15 K, 7010 kPa, x2 = 0.1907): 715.47 ± 4.6 kg/m3 | mass density (323.15 K, 7010 kPa, x2 = 0.3001): 719.46 ± 4.6 kg/m3 | mass density (323.15 K, 7010 kPa, x2 = 0.8711): 761.33 ± 4.9 kg/m3 | mass density (323.15 K, 7020 kPa, x2 = 0.1391): 714.02 ± 4.6 kg/m3 | mass density (323.15 K, 7020 kPa, x2 = 0.6863): 740.78 ± 4.7 kg/m3 | mass density (323.15 K, 8000 kPa, x2 = 0.1907): 716.39 ± 4.6 kg/m3 | mass density (323.15 K, 8010 kPa, x2 = 0.1391): 714.92 ± 4.6 kg/m3 | mass density (323.15 K, 8010 kPa, x2 = 0.4326): 725.12 ± 4.7 kg/m3 | mass density (323.15 K, 8010 kPa, x2 = 0.8711): 762.24 ± 4.9 kg/m3 | mass density (323.15 K, 8020 kPa, x2 = 0.3001): 720.36 ± 4.6 kg/m3 | mass density (323.15 K, 8020 kPa, x2 = 0.6863): 741.71 ± 4.8 kg/m3 | mass density (323.15 K, 9000 kPa, x2 = 0.1391): 715.8 ± 4.6 kg/m3 | mass density (323.15 K, 9000 kPa, x2 = 0.1907): 717.29 ± 4.6 kg/m3 | mass density (323.15 K, 9000 kPa, x2 = 0.4326): 726.05 ± 4.7 kg/m3 | mass density (323.15 K, 9000 kPa, x2 = 0.6863): 742.63 ± 4.8 kg/m3 | mass density (323.15 K, 9000 kPa, x2 = 0.8711): 763.15 ± 4.9 kg/m3 | mass density (323.15 K, 9010 kPa, x2 = 0.3001): 721.28 ± 4.6 kg/m3 | mass density (323.15 K, 10000 kPa, x2 = 0.1391): 716.7 ± 4.6 kg/m3 | mass density (323.15 K, 10000 kPa, x2 = 0.1907): 718.16 ± 4.6 kg/m3 | mass density (323.15 K, 10000 kPa, x2 = 0.3001): 722.18 ± 4.6 kg/m3

Reference: the NIST ThermoML archive (doi:10.1021/acs.jced.8b00554)
